These results are taken from ChEMBL document CHEMBL5505963, “Novel berberine derivatives as p300 histone acetyltransferase inhibitors in combination treatment for breast cancer” (Eur J Med Chem, 2024).

The source made the active and inactive calls. No cut-off for these calls is given here. Some results are limits rather than exact numbers.

Broadly, the IC50 is the concentration that inhibits the measured activity by half. One may read the inhibition as the percentage by which the read-out fell short of the control.

Histone acetyltransferase p300, sequence (Q09472 whole entry): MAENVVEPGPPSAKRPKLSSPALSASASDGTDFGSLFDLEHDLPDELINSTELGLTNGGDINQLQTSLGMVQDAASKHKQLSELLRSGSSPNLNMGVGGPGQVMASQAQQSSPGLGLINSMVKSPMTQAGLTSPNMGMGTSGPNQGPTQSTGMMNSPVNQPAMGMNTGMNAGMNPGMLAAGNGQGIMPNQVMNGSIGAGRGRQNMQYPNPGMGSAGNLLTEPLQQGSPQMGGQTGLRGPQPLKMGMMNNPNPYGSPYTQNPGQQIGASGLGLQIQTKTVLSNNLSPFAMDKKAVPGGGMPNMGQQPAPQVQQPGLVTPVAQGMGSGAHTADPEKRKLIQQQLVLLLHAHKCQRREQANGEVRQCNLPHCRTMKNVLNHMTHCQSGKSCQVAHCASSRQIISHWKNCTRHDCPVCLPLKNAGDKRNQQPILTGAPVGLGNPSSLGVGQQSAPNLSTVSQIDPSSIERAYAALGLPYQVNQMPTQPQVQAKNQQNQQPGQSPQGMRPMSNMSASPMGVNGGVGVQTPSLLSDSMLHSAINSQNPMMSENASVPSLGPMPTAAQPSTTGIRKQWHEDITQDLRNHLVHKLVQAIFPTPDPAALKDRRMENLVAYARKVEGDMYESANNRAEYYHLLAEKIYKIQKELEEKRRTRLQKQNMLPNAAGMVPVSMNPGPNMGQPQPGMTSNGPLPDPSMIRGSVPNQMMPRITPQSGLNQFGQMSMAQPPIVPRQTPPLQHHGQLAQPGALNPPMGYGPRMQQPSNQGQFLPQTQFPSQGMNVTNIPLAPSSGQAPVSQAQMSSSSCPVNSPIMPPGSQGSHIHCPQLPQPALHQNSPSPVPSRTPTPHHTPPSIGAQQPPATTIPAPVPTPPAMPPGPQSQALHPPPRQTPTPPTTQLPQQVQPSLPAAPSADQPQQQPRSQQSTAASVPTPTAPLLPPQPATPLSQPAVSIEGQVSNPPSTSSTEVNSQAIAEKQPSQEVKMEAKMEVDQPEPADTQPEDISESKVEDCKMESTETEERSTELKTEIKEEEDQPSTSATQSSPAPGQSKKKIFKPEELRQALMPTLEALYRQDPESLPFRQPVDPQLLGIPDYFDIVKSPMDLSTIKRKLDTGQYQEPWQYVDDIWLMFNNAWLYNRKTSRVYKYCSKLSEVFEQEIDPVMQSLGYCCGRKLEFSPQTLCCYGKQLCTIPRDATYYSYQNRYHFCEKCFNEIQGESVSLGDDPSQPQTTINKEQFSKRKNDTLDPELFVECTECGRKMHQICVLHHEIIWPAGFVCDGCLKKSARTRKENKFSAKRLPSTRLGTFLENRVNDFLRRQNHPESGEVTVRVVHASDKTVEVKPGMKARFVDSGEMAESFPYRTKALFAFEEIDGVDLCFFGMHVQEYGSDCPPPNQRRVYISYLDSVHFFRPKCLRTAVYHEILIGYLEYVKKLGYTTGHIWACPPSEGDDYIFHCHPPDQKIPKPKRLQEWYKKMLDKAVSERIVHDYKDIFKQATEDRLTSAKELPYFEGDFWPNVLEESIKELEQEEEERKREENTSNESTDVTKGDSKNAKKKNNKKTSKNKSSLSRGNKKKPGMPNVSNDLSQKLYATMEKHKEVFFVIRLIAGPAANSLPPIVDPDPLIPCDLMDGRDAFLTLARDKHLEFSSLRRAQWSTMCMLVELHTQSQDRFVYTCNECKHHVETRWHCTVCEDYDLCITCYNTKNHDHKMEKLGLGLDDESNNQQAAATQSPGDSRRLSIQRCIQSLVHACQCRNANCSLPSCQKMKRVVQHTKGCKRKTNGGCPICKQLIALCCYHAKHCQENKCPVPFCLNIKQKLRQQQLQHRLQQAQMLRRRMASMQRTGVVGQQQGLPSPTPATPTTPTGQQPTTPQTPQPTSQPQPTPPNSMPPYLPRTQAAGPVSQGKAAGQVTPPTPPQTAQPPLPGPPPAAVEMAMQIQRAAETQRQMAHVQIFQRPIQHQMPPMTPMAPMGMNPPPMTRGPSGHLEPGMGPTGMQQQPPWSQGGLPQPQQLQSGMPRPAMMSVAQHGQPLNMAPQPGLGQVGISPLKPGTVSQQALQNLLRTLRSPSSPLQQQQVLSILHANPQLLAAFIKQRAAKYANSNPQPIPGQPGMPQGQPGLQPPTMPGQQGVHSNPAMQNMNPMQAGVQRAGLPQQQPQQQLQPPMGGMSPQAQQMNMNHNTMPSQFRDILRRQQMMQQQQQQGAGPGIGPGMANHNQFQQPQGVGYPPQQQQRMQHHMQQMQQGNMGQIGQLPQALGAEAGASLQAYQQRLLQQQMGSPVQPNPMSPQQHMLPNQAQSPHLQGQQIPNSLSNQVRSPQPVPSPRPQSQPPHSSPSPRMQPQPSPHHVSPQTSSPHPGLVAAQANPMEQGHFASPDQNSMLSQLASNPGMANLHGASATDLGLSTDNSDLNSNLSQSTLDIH

One experiment has as its target Histone acetyltransferase p300 (Homo sapiens, UniProt Q09472). In words: Inhibition of p300 HAT (unknown origin) using 3H-acetyl-CoA as substrate assessed as H3 peptide acetylation preincubated with compound for 15 mins followed by substrate addition and measured after 30 mins by microbeta scintillation counter analysis.
Details: not given
As to `COc1ccc2cc3[n+](cc2c1OC)CCCNc1cc2c(cc1-3)OCO2`, the IC50 was greater than 20 µM.

Consider `COc1cc2cc3[n+](cc2cc1OC)CCCNc1cc2c(cc1-3)OCO2`, for which the IC50 was 9.69 µM.

On to `COc1ccc2cc3[n+](cc2c1OC)CCSc1cc2c(cc1-3)OCO2`, for which the concentration for half-maximal inhibition (IC50) was determined as 10.3 µM.

As for `COc1cc2cc3[n+](cc2cc1OC)CCCCOc1cc2c(cc1-3)OCO2`, the IC50 is greater than 20 µM.

As for `COc1cc2cc3[n+](cc2cc1OC)CCOCCOc1cc2c(cc1-3)OCO2`, the IC50 stood at 5.87 µM.

`COc1ccc2cc3[n+](cc2c1OC)CCc1cc2c(cc1-3)OCO2` [BERBERINE CHLORIDE]: the half-inhibitory concentration (IC50) is 8.91 µM.

Take `C1=CC2C=C3c4cc5c(cc4OCC[N+]3=CC2S1)OCO5` (stereo not drawn): the IC50 was found to be 9.31 µM.

Consider `COc1ccc2cc3[n+](cc2c1OC)CCc1c-3oc2ccccc12`, for which the IC50 was greater than 20 µM.

Take `COc1ccc2cc3[n+](cc2c1OC)CCNc1cc2c(cc1-3)OCO2`: the IC50 came to 6.78 µM.

Turning to `COc1cc2cc3[n+](cc2cc1OC)CCCSc1cc2c(cc1-3)OCO2`, the IC50 is 11.5 µM.

Consider `COc1cc2cc3[n+](cc2cc1OC)CCNc1cc2c(cc1-3)OCO2`, for which the IC50 came out at 3.39 µM.

With `COc1ccc2cc3[n+](cc2c1OC)CCCOc1cc2c(cc1-3)OCO2`, the IC50 was greater than 20 µM.

Take `COc1ccc2cc3[n+](cc2c1OC)CCOc1cc2c(cc1-3)OCO2`: the IC50 is 8.01 µM.

As to `COc1ccc2cc3[n+](cc2c1OC)CCCSc1cc2c(cc1-3)OCO2`, the IC50 is greater than 20 µM.

Turning to `COc1cc2cc3[n+](cc2cc1OC)CCCS(=O)(=O)c1cc2c(cc1-3)OCO2`, the half-inhibitory concentration (IC50) is greater than 20 µM.

On to `C1=CC2C=C3c4cc5c(cc4NCC[N+]3=CC2S1)OCO5` (stereo not drawn), for which the IC50 was found to be 7 µM.

Regarding `COc1cc2cc3[n+](cc2cc1OC)CCCOc1cc2c(cc1-3)OCO2`, the concentration for half-maximal inhibition (IC50) stood at 3.69 µM.

As to `COc1cc2cc3[n+](cc2cc1OC)CCN(C(C)=O)c1cc2c(cc1-3)OCO2`, the IC50 amounted to 17.5 µM.

On to `COc1cc2cc3[n+](cc2cc1OC)CCS(=O)(=O)c1cc2c(cc1-3)OCO2`, for which the 50% inhibitory concentration (IC50) is 11.3 µM.

Regarding `COc1ccc2cc3[n+](cc2c1OC)CCc1ccsc1-3`, the IC50 is greater than 20 µM.

In the case of `COc1cc2cc3[n+](cc2cc1OC)CC(C)COc1cc2c(cc1-3)OCO2` (stereo not drawn), the IC50 turned out to be 4.78 µM.

As for `COc1cc2cc3[n+](cc2cc1OC)CCSc1cc2c(cc1-3)OCO2`, the IC50 was 4.65 µM.

Another experiment concerns MCF7. Briefly: Antiproliferative activity against human MCF7 cells assessed as inhibition of cell growth incubated for 48 hrs by MTT assay. It is filed as functional, cell-based. As to conditions: MCF7, 48 h. (Tetrazolium assays rely on reduction of a dye to a coloured formazan, in cell work by metabolically active cells.)
`COc1ccc2cc3[n+](cc2c1OC)CCc1cc2c(cc1-3)OCO2` [BERBERINE CHLORIDE]: the IC50 was greater than 50 µM.

Regarding `COc1cc2cc3[n+](cc2cc1OC)CCNc1cc2c(cc1-3)OCO2`, the half-inhibitory concentration (IC50) turned out to be 36.7 µM.

In the case of `COc1cc2cc3[n+](cc2cc1OC)CCCOc1cc2c(cc1-3)OCO2`, the IC50 was found to be 37.8 µM.

In the case of `CNC(=O)Nc1ccc2c(c1)CC[C@@]21OC(=O)N(CC(=O)N(Cc2ccc(F)cc2)[C@@H](C)C(F)(F)F)C1=O` [A-485], the IC50 is greater than 30 µM.

As for `COc1cc2cc3[n+](cc2cc1OC)CC(C)COc1cc2c(cc1-3)OCO2` (stereo not drawn), the IC50 was found to be 29.5 µM.

Turning to `COc1cc2cc3[n+](cc2cc1OC)CCSc1cc2c(cc1-3)OCO2`, the IC50 amounted to 34.9 µM.

A further experiment deals with LNCaP. Briefly: Antiproliferative activity against human LNCaP cells assessed as inhibition of cell growth incubated for 48 hrs by MTT assay.
Details: not given
The experiment is classed as functional, cell-based.
On to `COc1ccc2cc3[n+](cc2c1OC)CCc1cc2c(cc1-3)OCO2` [BERBERINE CHLORIDE], for which the IC50 is greater than 50 µM.

As to `COc1cc2cc3[n+](cc2cc1OC)CCNc1cc2c(cc1-3)OCO2`, the IC50 is greater than 50 µM.

For the compound `COc1cc2cc3[n+](cc2cc1OC)CCCOc1cc2c(cc1-3)OCO2`, the IC50 is 33.5 µM.

As to `CNC(=O)Nc1ccc2c(c1)CC[C@@]21OC(=O)N(CC(=O)N(Cc2ccc(F)cc2)[C@@H](C)C(F)(F)F)C1=O` [A-485], the IC50 was determined as 1.7 µM.

On to `COc1cc2cc3[n+](cc2cc1OC)CC(C)COc1cc2c(cc1-3)OCO2` (stereo not drawn), for which the IC50 turned out to be 40.7 µM.

As to `COc1cc2cc3[n+](cc2cc1OC)CCSc1cc2c(cc1-3)OCO2`, the IC50 came out at 28.6 µM.

Another experiment has as its system PANC-1. In words: Antiproliferative activity against human PANC-1 cells assessed as inhibition of cell growth incubated for 48 hrs by MTT assay. It is filed as functional, cell-based. As to conditions: PANC-1, 48 h.
With `COc1ccc2cc3[n+](cc2c1OC)CCc1cc2c(cc1-3)OCO2` [BERBERINE CHLORIDE], the IC50 is greater than 50 µM.

As to `COc1cc2cc3[n+](cc2cc1OC)CCNc1cc2c(cc1-3)OCO2`, the IC50 was greater than 50 µM.

With `COc1cc2cc3[n+](cc2cc1OC)CCCOc1cc2c(cc1-3)OCO2`, the IC50 stood at 38.6 µM.

On to `CNC(=O)Nc1ccc2c(c1)CC[C@@]21OC(=O)N(CC(=O)N(Cc2ccc(F)cc2)[C@@H](C)C(F)(F)F)C1=O` [A-485], for which the IC50 was greater than 30 µM.

Regarding `COc1cc2cc3[n+](cc2cc1OC)CC(C)COc1cc2c(cc1-3)OCO2` (stereo not drawn), the IC50 was 33.7 µM.

As for `COc1cc2cc3[n+](cc2cc1OC)CCSc1cc2c(cc1-3)OCO2`, the IC50 amounted to 49.5 µM.

A further experiment deals with MCF-10A. In words: Antiproliferative activity against human MCF-10A cells assessed as inhibition of cell growth incubated for 48 hrs by MTT assay. It is filed as functional, cell-based.
Details: not given
In the case of `COc1ccc2cc3[n+](cc2c1OC)CCc1cc2c(cc1-3)OCO2` [BERBERINE CHLORIDE], the half-inhibitory concentration (IC50) is greater than 50 µM.

For `COc1cc2cc3[n+](cc2cc1OC)CCNc1cc2c(cc1-3)OCO2`, the IC50 is greater than 50 µM.

Take `COc1cc2cc3[n+](cc2cc1OC)CCCOc1cc2c(cc1-3)OCO2`: the 50% inhibitory concentration (IC50) was greater than 50 µM.

On to `COc1cc2cc3[n+](cc2cc1OC)CC(C)COc1cc2c(cc1-3)OCO2` (stereo not drawn), for which the IC50 was greater than 50 µM.

As to `COc1cc2cc3[n+](cc2cc1OC)CCSc1cc2c(cc1-3)OCO2`, the IC50 was greater than 50 µM.

In another experiment the test system is MCF-10A. Briefly: Antiproliferative activity against human MCF-10A cells assessed as inhibition of cell growth at 50 uM incubated for 48 hrs by MTT assay relative to control. It is filed as functional.
Details: not given
For `COc1cc2cc3[n+](cc2cc1OC)CC(C)COc1cc2c(cc1-3)OCO2` (stereo not drawn), the inhibition at 50 µM amounted to 77%.

The subject of a further experiment is MCF7. In words: Antiproliferative activity against human MCF7 cells assessed as inhibition of cell proliferation incubated for 48 hrs by MTT assay. The experiment is classed as functional, cell-based. As to conditions: MCF7, 48 h.
Turning to `COc1cccc2c1C(=O)c1c(O)c3c(c(O)c1C2=O)C[C@@](O)(C(=O)CO)C[C@@H]3O[C@H]1C[C@H](N)[C@H](O)[C@H](C)O1` [DOXORUBICIN], the IC50 turned out to be 2.46 µM.

In a further experiment the test system is MCF7. Briefly: Induction of apoptosis in human MCF7 cells assessed as upregulation of cleaved caspase 3 level at 1 microg/ml incubated for 24 hrs by Western blot analysis. It is filed as functional, cell-based. As to conditions: dose 1.0 µg/ml. On the technique in general: A western blot detects proteins with antibodies after separation by electrophoresis.
Turning to `COc1cccc2c1C(=O)c1c(O)c3c(c(O)c1C2=O)C[C@@](O)(C(=O)CO)C[C@@H]3O[C@H]1C[C@H](N)[C@H](O)[C@H](C)O1` [DOXORUBICIN], the outcome was inactive.

The next experiment relates to MCF7. In words: Induction of apoptosis in human MCF7 cells assessed as upregulation of cleaved PARP level at 1 microg/ml uM incubated for 24 hrs by Western blot analysis. It is filed as functional, cell-based. As to conditions: dose 1.0 µg/ml.
In the case of `COc1cccc2c1C(=O)c1c(O)c3c(c(O)c1C2=O)C[C@@](O)(C(=O)CO)C[C@@H]3O[C@H]1C[C@H](N)[C@H](O)[C@H](C)O1` [DOXORUBICIN], the result was inactive.

The next experiment relates to MCF7. In words: Downregulation of survivin level in human MCF7 cells at 1 microg/ml incubated for 24 hrs by Western blot analysis. As to conditions: dose 1.0 µg/ml. The experiment is classed as functional, cell-based.
As to `COc1cccc2c1C(=O)c1c(O)c3c(c(O)c1C2=O)C[C@@](O)(C(=O)CO)C[C@@H]3O[C@H]1C[C@H](N)[C@H](O)[C@H](C)O1` [DOXORUBICIN], the outcome was Active.

The next experiment deals with MCF7. In words: Inhibition of cell migration in human MCF7 cells assessed as reduction in scratch measured after 24 hrs by microscopic analysis. The experiment is classed as functional.
Details: not given
`COc1cccc2c1C(=O)c1c(O)c3c(c(O)c1C2=O)C[C@@](O)(C(=O)CO)C[C@@H]3O[C@H]1C[C@H](N)[C@H](O)[C@H](C)O1` [DOXORUBICIN]: the “inhibition (INH)” value was 62.43%.

The test system of another experiment is MCF7. In words: Inhibition of cell invasion in human MCF7 cells measured after 24 hrs by crystal violet staining based microscopic analysis.
Details: not given
It is filed as functional.
`COc1cccc2c1C(=O)c1c(O)c3c(c(O)c1C2=O)C[C@@](O)(C(=O)CO)C[C@@H]3O[C@H]1C[C@H](N)[C@H](O)[C@H](C)O1` [DOXORUBICIN]: the inhibition entry was “Active”.

Another experiment deals with MCF7. In words: Antitumor activity against human MCF7 cells xenografted in BALB/c nude mouse assessed as tumor growth inhibition at 2 mg/kg, ip measured upto 14 days. The experiment is classed as functional. As to conditions: MCF7, 336 h, time <= 14 day, read-out: TGI. In general terms: In xenograft studies the graft and the host belong to different species.
For `COc1cccc2c1C(=O)c1c(O)c3c(c(O)c1C2=O)C[C@@](O)(C(=O)CO)C[C@@H]3O[C@H]1C[C@H](N)[C@H](O)[C@H](C)O1` [DOXORUBICIN], the inhibition in vivo at 2 mg/kg worked out at 64.3%.
